Data taken from BindingDB's records for doi:10.7270/Q2H70D5W (University of Pittsburgh, 2007).

Biological target: Gag-Pol polyprotein (Human immunodeficiency virus type 1 group M subtype B (isolate HXB2), UniProt P04585)
Assay: concentration-response of HIV-1 RNase H blockers – biochemical, probe assessment, dose response (AID 652)
Details: pH 8; 23 °C

Row | SMILES | IC50 [µM]
1 | O=C(c1ccccc1F)N1CCN(S(=O)(=O)c2ccc(S(=O)(=O)N3CCCCC3)cc2)CC1 [(2-Fluoro-phenyl)-{4-[4-(piperidine-1-sulfonyl)-benzenesulfonyl]-piperazin-1-yl}-methanone] | 44
2 | OCCN1CCN(C(=S)c2ccc(Cl)c(Cl)c2)CC1 [(3,4-dichlorophenyl)-[4-(2-hydroxyethyl)-1-piperazinyl]methanethione] | 3.2
3 | CN1CCN(C(=O)c2sc(=S)n(-c3ccccc3)c2N)CC1 [(4-amino-3-phenyl-2-sulfanylidene-1,3-thiazol-5-yl)-(4-methylpiperazin-1-yl)methanone] | 2.29
4 | Nc1c(C(=O)N2CCOCC2)sc(=S)n1-c1ccccc1 [(4-amino-3-phenyl-2-sulfanylidene-1,3-thiazol-5-yl)-morpholin-4-ylmethanone] | 4.97
5 | Nc1c(C(=O)N2CCCCC2)sc(=S)n1-c1ccccc1 [(4-amino-3-phenyl-2-sulfanylidene-1,3-thiazol-5-yl)-piperidin-1-ylmethanone] | 1.85
6 | COc1ccccc1-c1nnc2n1N=C(c1ccc(O)c(O)c1)CS2 [(4E)-4-[3-(2-methoxyphenyl)-5H-[1,2,4]triazolo[3,4-b][1,3,4]thiadiazin-6-ylidene]-2-oxidanyl-cyclohexa-2,5-dien-1-one] | 1
7 | O=c1[nH]c(=O)n(-c2ccc(F)cc2)c(O)c1C=Nc1ccccc1N1CCCC1 [(5E)-1-(4-fluorophenyl)-5-[[2-(1-pyrrolidinyl)anilino]methylidene]-1,3-diazinane-2,4,6-trione] | 23.1
8 | CN(C)c1ccc(NC=C2C(=O)NC(=O)N(CCC3=CCCCC3)C2=O)cc1 [(5Z)-1-[2-(cyclohexen-1-yl)ethyl]-5-[[[4-(dimethylamino)phenyl]amino]methylidene]-1,3-diazinane-2,4,6-trione] | 3.8
9 | CCOC(=O)N1CCC2=C(C#N)C(=N)C(C#N)(C#N)[C@H](c3ccc(OC(C)C)c(OCC)c3)[C@H]2C1 [(8S,8aR)-6-amino-5,7,7-tricyano-8-(3-ethoxy-4-isopropoxy-phenyl)-1,3,8,8a-tetrahydroisoquinoline-2-carboxylic acid ethyl ester] | 21.7
10 | CCCCC[C@H](O)C=C[C@H]1C=CC(=O)[C@@H]1C/C=C\CCCC(=O)O [(Z)-7-[(1R,5S)-2-oxidanylidene-5-[(E,3S)-3-oxidanyloct-1-enyl]cyclopent-3-en-1-yl]hept-5-enoic acid] | 1.06
11 | CC(Cc1ccc(O)c(O)c1)C(C)Cc1ccc(O)c(O)c1 (stereo unspecified) [LOX inhibitor, N/A] | 0.664
12 | CCC1(C)Cc2c(sc3c2c(=O)n(C)c2nnc(SCc4ccc5c(c4)OCO5)n32)CO1 (stereo unspecified) [MLS000030507] | 23
13 | CC1CCN(S(=O)(=O)c2ccc(NC(=O)Cn3nnc(-c4ccccc4)n3)cc2)CC1 [MLS000032813] | 22
14 | O=C1c2sc3nc4ccccc4n3c2C(=O)N1c1ccccc1Cl [MLS000038506] | 1.13
15 | c1ccc(-n2ncc3c2ncn2nc(-c4ccco4)nc32)cc1 [MLS000041701] | 8.01
16 | COC(=O)N(c1ccc(OC)cc1)P1(=S)OCCC(C)O1 (stereo unspecified) [MLS000043492] | 1.02
17 | Cc1ccccc1OCc1nc(-c2ccc(NC(=O)c3ccc4c(c3)OCO4)cc2)no1 [MLS000047257] | 4.58
18 | CC(=O)c1cccc(NC(=O)c2cc(-c3ccc(C)cc3)on2)c1 [MLS000050755] | 13.3
19 | O=C(CCN1C(=O)c2ccccc2C1=O)Nc1ccc(-c2nc3ccccc3o2)cc1 [MLS000051238] | 5.8
20 | COc1cc(C(=O)Nc2oc(-c3ccccc3)c(-c3ccccc3)c2C#N)cc(OC)c1OC [MLS000051579] | 6.05
21 | Cc1cc(C)c2oc(-c3ccc(Cl)c(NC(=O)c4ccc(C#N)cc4F)c3)nc2c1 [MLS000052597] | 2.73
22 | COC(=O)N(c1ccccc1)P1(=S)OCCO1 [MLS000052970] | 2.06
23 | O=C(Nc1nc(-c2ccncc2)cs1)c1ccco1 [MLS000053154] | 5.64
24 | N#Cc1c(NC(=O)CN2CCN(S(=O)(=O)c3ccc4c(c3)OCCO4)CC2)sc2c1CCC2 [MLS000053165] | 3.48

Row | SMILES | IC50 [µM]
25 | Cn1ccnc1P(=S)(c1nccn1C)N1CCOCC1 [MLS000054793] | 11.8
26 | Cc1cccc(-n2c(N)c(C(=O)N3CCN(C)CC3)sc2=S)c1 [MLS000056753] | 45.1
27 | CC(C)Cn1c(SCC(=O)NC(=O)Nc2ccc3c(c2)OCCO3)nc2ccccc2c1=O [MLS000057544] | 4.47
28 | Cc1sc(NC(=O)c2oc3ccccc3c2C)c(C#N)c1C [MLS000065828] | 10.8
29 | CCCc1cc(C(N)=O)c(NC(=O)C2CCCO2)s1 (stereo unspecified) [MLS000065925] | 1.89
30 | COc1ccc(OC)c(C=Nc2oc(-c3ccco3)c(-c3ccco3)c2C#N)c1 [MLS000068778] | 4.02
31 | Cc1ccc(NC(=O)CSc2nnc(-c3ccc(S(=O)(=O)N4CCCC4)cc3)o2)cc1C [MLS000071775] | 12.3
32 | O=C(NC1CCS(=O)(=O)C1)c1c(NC(=O)C2COc3ccccc3O2)sc2c1CCCC2 (stereo unspecified) [MLS000077500] | 46.3
33 | CCC1CC2(C)NC(=O)c3c(sc4c3CC(C)(C)OC4)N2C1=O (stereo unspecified) [MLS000077638] | 2.88
34 | Cc1cccc(N2CSC3=C(C#N)C(c4ccc(C)o4)CC(=O)N3C2)c1 (stereo unspecified) [MLS000080648] | 0.434
35 | COc1cc(OC)c(C2CC(=O)N3CN(c4ccccc4C)CSC3=C2C#N)cc1OC (stereo unspecified) [MLS000080656] | 4.51
36 | O=S(=O)(NS1=CC=CCN1S(=O)(=O)c1ccccc1)c1ccccc1 (stereo unspecified) [MLS000081951] | 4.33
37 | CCOC(=O)Cc1csc(-n2sc3ccccc3c2=O)n1 [MLS000082162] | 0.598
38 | CC(C)c1nc2sc3c(SCC(=O)NCc4ccco4)ncnc3c2c2c1CCC2 [MLS000082582] | 2.28
39 | CC(C)Sc1nc2sc3c(c2c2nnc(SCC(=O)NCc4ccco4)n12)CCCC3 [MLS000082957] | 3.01
40 | COc1cccc(OC)c1-c1nn2c(-c3cc(-c4ccccc4)n[nH]3)nnc2s1 [MLS000083027] | 3.81
41 | O=C(CSc1nnnn1-c1ccccc1)Nc1nsc(-c2ccc(Cl)cc2)n1 [MLS000085595] | 15.7
42 | CCOC(=O)N(c1ccccc1)P1(=S)OCCO1 [MLS000090301] | 3.25
43 | CCCSc1nc2c(cnn2-c2ccc(Cl)cc2)c(=O)[nH]1 [MLS000091828] | 9.64
44 | COc1cccc(OCC(=O)Nc2c(C(=O)Nc3ccc(OC)cc3OC)oc3ccccc23)c1 [MLS000093002] | 1.77
45 | CCOC(=O)c1sc(=S)n2c1[nH]c(=O)c1ccc(C(=O)OC)cc12 [MLS000094734] | 0.648
46 | CC(C)C1N=C2c3ccccc3N=C(SCC(=O)c3ccc(O)c(O)c3)N2C1=O (stereo unspecified) [MLS000094866] | 0.59
47 | CCCCC(CC)Cn1c2nc3ccccc3nc2c2c(=N)oc(C)nc21 (stereo unspecified) [MLS000098038] | 2.33
48 | O=C(CSc1nc2sc3c(c2c(=O)n1-c1ccccc1)CCCC3)NCc1ccco1 [MLS000115858] | 17.2

Row | SMILES | IC50 [µM]
49 | CCCc1cc(C(=O)Nc2sc3c(c2C#N)CCC3)no1 [MLS000116386] | 2.8
50 | CC(C)Cc1cc(C(=O)Nc2sc3c(c2C#N)CCCC3)no1 [MLS000116410] | 4.76
51 | CC(C)c1ccc(C2CC(=O)N3CN(C)CSC3=C2C#N)cc1 (stereo unspecified) [MLS000117258] | 10.7
52 | COc1ccc(N2CSC3=C(C#N)C(c4cc(OC)c(OC)cc4OC)CC(=O)N3C2)c(OC)c1 (stereo unspecified) [MLS000117261] | 11.9
53 | COc1ccc(OC)c(CCNC(=O)Cn2sc3nc(C)cc(C)c3c2=O)c1 [MLS000118887] | 3.08
54 | CC(=O)N(Cc1cc(=O)[nH]c2ccccc12)c1cccc(C)c1 [N-(3-methylphenyl)-N-[(2-oxidanylidene-1H-quinolin-4-yl)methyl]ethanamide] | 5.08
55 | CCC(C)c1ccc2oc(-c3ccc(NC(=O)c4nnc[nH]4)cc3)nc2c1 (stereo unspecified) [N-[4-(5-sec-butyl-1,3-benzoxazol-2-yl)phenyl]-1H-1,2,4-triazole-3-carboxamide] | 6.07
56 | COc1ccc(OC)c(S(=O)(=O)Nc2ccc(O)c(Sc3nc[nH]n3)c2)c1 [N-[4-hydroxy-3-(1H-1,2,4-triazol-3-ylthio)phenyl]-2,5-dimethoxybenzenesulfonamide] | 2.46
57 | COC(=O)c1ccccc1S(=O)(=O)N(Cc1cc2cc3c(cc2[nH]c1=O)OCO3)C1CCCCC1 [SMR000002998] | 21.1
58 | CCC(C)Sc1nc2c(c(=O)[nH]c(=O)n2C)n1CC(O)COc1cccc2ccccc12 (stereo unspecified) [SMR000009990] | 4
59 | CC1=C(SCCC#N)S/C(=C2\SC(C)=C(SCCC#N)S2)S1 [SMR000011057] | 2.8
60 | COC(=O)c1cccc(N2C(=O)C(Cl)=C(N3CCOCC3)C2=O)c1 [SMR000014938] | > 50
61 | COc1ccc(-n2c(SCC(=O)N3CCCC3)nc3c([nH]c4ccccc43)c2=O)cc1 [SMR000018494] | 16.6
62 | COc1ccc(C2C(C(C)=O)=C(C)N=c3sc(=Cc4ccc5c(c4)OCO5)c(=O)n32)cc1 (stereo unspecified) [SMR000020852] | 7.02
63 | COc1cc(/N=c2/ssnc2Cl)cc(OC)c1OC [SMR000025034] | 0.281
64 | O=C(NC1CCCCC1)c1sc(=S)n2c1[nH]c(=O)c1ccccc12 [SMR000030293] | 0.645
65 | CCCCCCNC(=O)c1c(N)n(N=Cc2ccco2)c2nc3ccccc3nc12 [SMR000042381] | 2.77
66 | Cc1nn(CCc2nc(-c3ccco3)cs2)c2nc(O)cc(C(F)(F)F)c12 [SMR000060922] | 1.97
67 | CCOC(=O)C1=C(C)N=c2s/c(=C3/C(=O)Nc4ccccc43)c(=O)n2C1c1ccc2c(c1)OCO2 (stereo unspecified) [SMR000072283] | 1.07
68 | S=c1[nH]c(C2CC2)nc2ccccc12 [SMR000075851] | 2.06
69 | CCOC(=O)c1sc(NC(=O)CSc2nnc(-c3ccccc3)[nH]2)c(C#N)c1C [ethyl 4-cyano-3-methyl-5-[[2-[(5-phenyl-1H-1,2,4-triazol-3-yl)sulfanyl]acetyl]amino]thiophene-2-carboxylate] | 0.67
70 | CCOC(=O)c1c(C)[nH]c(C(=O)CSc2nc3ccccc3o2)c1C [ethyl 5-[2-(1,3-benzoxazol-2-ylsulfanyl)ethanoyl]-2,4-dimethyl-1H-pyrrole-3-carboxylate] | 7.6
71 | COC(=O)c1ccc2c(=O)[nH]c(CN3c4ccccc4CC3C)nc2c1 (stereo unspecified) [methyl 2-[(2-methyl-2,3-dihydroindol-1-yl)methyl]-4-oxo-1H-quinazoline-7-carboxylate] | 13.3
